# Reference: paper PMC6761391, “Blockade of Mas Receptor or Mas-Related G-Protein Coupled Receptor Type D Reduces Portal Pressure in Cirrhotic but Not in Non-cirrhotic Portal Hypertensive Rats” (Frontiers in Physiology, 2019)
# Counter-ions that a name gives are not always drawn. Non-standard residues stand in square brackets, D forms with d. Residues, ends and D or L forms follow the SMILES beside them.
# What was measured:
# [1] = In vivo angiotensin (1-7) peptide metabolism assay (plasma concentration by radioimmunoassay); conditions: BDL rats, 10 μg/kg i.v. bolus; for time of peak plasma concentration post-injection: blood at 30 s, 1, 2, 5 min, Ang-(1-7) radioimmunoassay (cross-reactivity for A779 and D-Pro not determined); for time of peak plasma concentration post-injection / time for circulating peptide levels to return to baseline levels after injection: 4 rats per group, plasma; for time for circulating peptide levels to return to baseline levels after injection: Ang-(1-7) radioimmunoassay; for fate in the rat circulation following a bolus injection: circulating concentrations by radioimmunoassay
# Method: To determine the longevity of the angiotensin peptides in the rat circulation, a separate set of experiments was carried out using BDL rats. Four weeks after BDL, the rats were anesthetized with ketamine/xylazine mixture and the femoral artery and vein were cannulated using PE-10 catheters as described previously ([Grace et al., 2013]). After 30 min of stabilization, 1 ml of blood was drawn from the femoral artery as the baseline sample into an Eppendorf tube containing protease inhibitor mix (20 μl/ml of blood: 50 mmol/L Na2 EDTA, 0.2 mol/L N-ethylmaleimide, 21,000 U/ml aprotonin, 5 mg/ml leupeptin, and 1 mg/ml pepstatin; prepared fresh daily and kept on ice) to prevent breakdown of angiotensin peptides. Injection of either MasR or MrgD blockers, A779 or D-Pro (10 μg/kg), respectively, was performed thereafter via the femoral vein catheter. Blood samples were collected at 30 s, 1, 2, and 5 min after injection. A separate group of rats was injected with Ang-(1-7) peptide (10 μg/kg) and blood was collected as before. After completion of the experiment, the rats were euthanized by exsanguination. Blood samples were centrifuged at 4,000 rpm for 10 min to harvest plasma. Radioimmunoassay for Ang-(1-7) (Prosearch International, Australia, Pty Ltd) was performed to determine plasma concentration of peptide blockers and Ang-(1-7) at different time points. Twelve BDL rats were used for the experiment, with four rats in each of the three treatment groups. The extent of cross-reactivity for D-Ala (A779) and D-Pro was not determined for the Ang-(1-7) radioimmunoassay.
# [2] = system: cirrhotic carbon tetrachloride (CCl4) injected rats; experiment: Portal pressure (PP) measurement in cirrhotic CCl4 rats after intravenous bolus injection; format: in vivo, Sprague Dawley rats
# Method: (§1) Six-week-old male Sprague Dawley rats (200–250 g BW) were used to induce cirrhosis and PHT by injections of carbon tetrachloride (CCl4) as described previously ([Fallowfield et al., 2014]). Rats were housed in a controlled environment as described above. CCl4 was administered twice weekly via intraperitoneal injections, at a dose of 1 ml/kg, mixed with 1:1 ratio with olive oil. After 10 weeks of CCl4 administration, the rats were used for receptor blocker infusion experiments.
# (§2) Four weeks after BDL, 10 weeks after CCl4 and 2 weeks after PPVL, the rats were anesthetized with ketamine/xylazine mixture (75 and 10 mg/kg BW, respectively, Therapon Pty Ltd). A median laparotomy was performed, and a small PE 10 polyethylene catheter (Microtube Extrusions, NSW, Australia) was inserted into a small ileocecal vein and advanced to the portal vein to measure PP. A skin incision was made in the left inner thigh to identify the left femoral artery and cannulated with a PE 10 catheter to measure the mean arterial pressure (MAP). Portal vein and femoral artery catheters were connected to a highly sensitive pressure transducer (Zultek Engineering, Melbourne, VIC, Australia). The left femoral vein was cannulated with a similar PE 10 catheter for bolus injections of the receptor blockers. After insertion of the catheters, the rats were allowed to stabilize hemodynamically for 30 min prior to interventions.
# The baseline values of PP and MAP were recorded prior to injection of the drugs. For a single receptor blocker experiments, either MasR blocker A779 (10 μg/kg) ([Grace et al., 2013]), MrgD blocker D-Pro (10 μg/kg), or AT2R blocker PD123319 (1 mg/kg) ([Yang et al., 2011]) was administered intravenously via the femoral vein catheter as a single bolus injection. The dose was calculated for each individual rat according to body weight. The bolus injection was prepared by dissolving a stock solution of […] (A779 or D-Pro) or 10 mg/ml (PD123319) in 0.9% NaCl to make a minimum injectable volume of 0.25 ml. This is to avoid variations in pressure due to adding volume to the circulation. After the bolus injection of the drug, the catheter was slowly flushed with 0.25 ml 20 IU/ml heparinized saline. Measurement of PP and MAP was continued for additional 30 min after injection (Figure 2A). Each treatment group of BDL, CCl4, and PPVL consisted of six to seven rats. For each model, a separate control group of animals (n = 6 per group) received saline injections for comparison with the treatment effects.
# A separate set of experiments were carried out in the two cirrhotic PHT rat models (BDL and CCl4) to investigate whether the detrimental effects of AT1R blocker losartan on systemic arterial pressure can be counteracted by a second injection of either MasR or MrgD blockers; A779 or D-Pro, respectively. In this study, a bolus injection of losartan was administered and 20 min later, a bolus injection of either A779 or D-Pro was given. The pressure measurement was carried out for additional 20 min after the second injection (Figure 2B). A total of 18 BDL and 18 CCl4 rats were used (n = 6 per treatment group).
# [3] = system: cirrhotic bile duct ligated (BDL) rats; experiment: Portal pressure (PP) measurement in cirrhotic bile duct ligated (BDL) rats after intravenous bolus injection; format: in vivo, Sprague Dawley rats
# Method: (§3) Eight-week-old male Sprague Dawley rats (300–350 g BW) underwent bile duct ligation surgery (BDL) to induce cirrhosis and PHT. Rats were housed in a controlled environment with 12:12-h light to dark cycle with controlled temperature (22–24°C) and fed standard rat chow ad libitum (Norco, Lismore NSW, Australia) and water. After 1 week of acclimatization, the rats were anesthetized with isoflurane gaseous anesthesia (Therapon Pty Ltd., Victoria, Australia). The rats were also given a single dose of carprofen (5 mg/kg, Rimadyl, Australia) subcutaneously prior to surgery to limit post-operative discomfort. BDL surgery was performed as previously described ([Herath et al., 2007]). Briefly, a midline incision was made in the abdomen to enter the peritoneal cavity. The common bile duct was located and double ligated with 4/0 silk suture. The bile duct was then transacted between two ligatures. Intraoperatively, animals were kept warm on a heat pad and received 0.9% NaCl 10 ml/kg. The abdominal wall was closed in two layers using sterile 4/0 silk suture. Four weeks after BDL surgery, the rats were used for receptor blocker infusion experiments as described below.
# as §2
# (§4) The baseline values of PP and MAP were recorded prior to injection of the drugs. For a single receptor blocker experiments, either MasR blocker A779 (10 μg/kg) ([Grace et al., 2013]), MrgD blocker D-Pro (10 μg/kg), or AT2R blocker PD123319 (1 mg/kg) ([Yang et al., 2011]) was administered intravenously via the femoral vein catheter as a single bolus injection. The dose was calculated for each individual rat according to body weight. The bolus injection was prepared by dissolving a stock solution of […] (A779 or D-Pro) or 10 mg/ml (PD123319) in 0.9% NaCl to make a minimum injectable volume of 0.25 ml. This is to avoid variations in pressure due to adding volume to the circulation. […]
# [4] = system: cirrhotic carbon tetrachloride (CCl4) injected rats; experiment: Mean arterial pressure (MAP) measurement in CCl4 rats; format: in vivo, Sprague Dawley rats; conditions: CCl4 model
# Method: as §1, §2, §4
# [5] = system: cirrhotic bile duct ligated (BDL) rats; experiment: Mean arterial pressure (MAP) measurement in BDL rats; format: in vivo, Sprague Dawley rats; conditions: BDL model
# Method: as §3
# as §2, with “The left femoral vein was cannulated with a similar PE 10 catheter for bolus injections of the receptor blockers. After insertion of the catheters, the rats were allowed to stabilize hemodynamically for 30 min prior to interventions.” left out
# (§5) The baseline values of PP and MAP were recorded prior to injection of the drugs. […] The dose was calculated for each individual rat according to body weight. […]
# MasR = conditions: ref Santos et al., 2003; cited from earlier work
# Excerpt: Although it is well known that Ang (1-7) produces its effects by binding to MasR and MrgD ([Santos et al., 2003]; [Tetzner et al., 2016]), early cell culture studies have reported some actions of Ang-(1-7) were mediated via the subtypes of AT1R ([Muthalif et al., 1998]; [[…] et al., 2001]). Some studies also proposed that MasR may interact with AT1R by receptor hetero-dimerization or alterations in post-receptor signaling ([Castro et al., 2005]; [Kostenis et al., 2005]; [Tesanovic et al., 2010]; [Castelo-Branco et al., 2017]; [O'Neill et al., 2017]), which in turn leads to the inhibition o ...
# [6] = system: non-cirrhotic partial portal vein ligated (PPVL) rats; experiment: Portal pressure (PP) measurement in non-cirrhotic PPVL rats after intravenous bolus injection; format: in vivo, Sprague Dawley rats; conditions: non-cirrhotic PPVL rat model; single i.v. bolus (A779, D-Pro 10 μg/kg; PD123319 1 mg/kg)
# Method: (§6) Eight-week-old male Sprague Dawley rats (300–350 g BW) were used to induce non-cirrhotic portal hypertension by partial portal vein ligation (PPVL) surgery as described previously ([Kahn et al., 1988]). Briefly, under gaseous anesthesia, a median laparotomy was performed and the portal vein was identified. A 19G needle was placed alongside the length of the portal vein, and a 4/0 silk suture was tied around the portal vein and the needle. The needle was then removed creating a calibrated stenosis in the portal vein, partially obstructing the portal flow. The abdominal wall was closed in two layers using sterile 4/0 silk suture. Two weeks after PPVL, the rats were used for receptor blocker infusion experiments.
# (§7) Four weeks after BDL, 10 weeks after CCl4 and 2 weeks after PPVL, the rats were anesthetized with ketamine/xylazine mixture (75 and 10 mg/kg BW, respectively, Therapon Pty Ltd). A median laparotomy was performed, and a small PE 10 polyethylene catheter (Microtube Extrusions, NSW, Australia) was inserted into a small ileocecal vein and advanced to the portal vein to measure PP. […]
# as §5
# [7] = system: non-cirrhotic partial portal vein ligated (PPVL) rats; experiment: Mean arterial pressure (MAP) measurement in PPVL rats; format: in vivo, Sprague Dawley rats; conditions: single i.v. bolus (A779, D-Pro 10 μg/kg; PD123319 1 mg/kg)
# Method: as §6, §7, §5
# MrgD = conditions: HEK293 cells transfected with MrgD; ref Tetzner et al., 2016; cited from earlier work
# Excerpt: There is some evidence that ATR2 also mediates Ang-(1-7) action. This was based on observations that the vasodilatory effects of Ang-(1-7) in vivo ([Heitsch et al., 2001]) and ex vivo and in vitro ([Tesanovic et al., 2010]; [Grace et al., 2013]) were inhibited by AT2R blockade with PD123319.
# [8] = CCl4 model, losartan 1 mg/kg i.v. bolus
# [9] = BDL model, losartan 1 mg/kg i.v. bolus
# [10] = losartan 1 mg/kg i.v. bolus, 12 to 14 rats
# [11] = CCl4 model, single i.v. bolus (A779, D-Pro 10 μg/kg; PD123319 1 mg/kg)
smiles,measurement,setting,value
"CC[C@H](C)[C@H](NC(=O)[C@H](Cc1ccc(O)cc1)NC(=O)[C@@H](NC(=O)[C@H](CCCNC(=N)N)NC(=O)[C@@H](N)CC(=O)O)C(C)C)C(=O)N[C@@H](Cc1c[nH]cn1)C(=O)N1CCC[C@H]1C(=O)O [Ang-(1-7), Angiotensin (1-7)]",time of peak plasma concentration post-injection,[1],2 min
same,time for circulating peptide levels to return to baseline levels after injection,[1],≤ 5 min
"CCCCc1nc(Cl)c(CO)n1Cc1ccc(-c2ccccc2-c2nn[nH]n2)cc1 [losartan, losartan hydrochloride]",duration of portal pressure lowering effect post-intervention,[2]; [8],up to 30 min
same,start of PP reduction post-injection,[2]; [8],5 min
same,change in PP from baseline pressure,"[2]; CCl4 model, losartan 1 mg/kg i.v. bolus, 12 to 14 rats",significant (p < 0.01) reduction in PP
same,duration of portal pressure lowering effect post-intervention,[3]; [9],up to 30 min
same,start of PP reduction post-injection,[3]; [9],5 min
same,change in PP from baseline pressure,"[3]; BDL model, losartan 1 mg/kg i.v. bolus, 12 to 14 rats",significant (p < 0.01) reduction in PP
same,start of MAP reduction post-injection,[4]; losartan 1 mg/kg i.v. bolus,10 min
same,change in MAP from baseline,[4]; [10],significantly (p < 0.01) reduced MAP
same,start of MAP reduction post-injection,[5]; losartan 1 mg/kg i.v. bolus,5 min
same,change in MAP from baseline,[5]; [10],significantly (p < 0.01) reduced MAP
same,ligand for MasR,MasR,not a ligand for MasR
"CC[C@H](C)[C@H](NC(=O)[C@H](Cc1ccc(O)cc1)NC(=O)[C@@H](NC(=O)[C@H](CCCN=C(N)N)NC(=O)[C@@H](N)CC(=O)O)C(C)C)C(=O)N[C@@H](Cc1c[nH]cn1)C(=O)N1CCC[C@@H]1C(=O)O [D-Pro, D-Pro^7-Ang-(1-7)]",time of peak plasma concentration post-injection,[1],2 min
same,fate in the rat circulation following a bolus injection,[1],rapidly degraded in the rat circulation
same,time for circulating peptide levels to return to baseline levels after injection,[1],≤ 5 min
CC[C@H](C)[C@H](NC(=O)[C@H](Cc1ccc(O)cc1)NC(=O)[C@@H](NC(=O)[C@H](CCCNC(=N)N)NC(=O)[C@@H](N)CC(=O)O)C(C)C)C(=O)N[C@@H](Cc1cnc[nH]1)C(=O)N[C@H](C)C(=O)O [A779] (H-DRVYIH[dA]-OH),time of peak plasma concentration post-injection,[1],2 min
same,fate in the rat circulation following a bolus injection,[1],rapidly degraded in the rat circulation
same,time for circulating peptide levels to return to baseline levels after injection,[1],≤ 5 min
Cc1cc(Cn2cnc3c2C[C@@H](C(=O)O)N(C(=O)C(c2ccccc2)c2ccccc2)C3)ccc1N(C)C [PD123319],maximum reduction in portal pressure,[2]; [11],4.8%
same,time for which the reduction in PP persisted after injection,[2]; [11],up to 20 min
same,change in portal pressure (PP) from baseline,"[2]; CCl4 rats, single i.v. bolus (A779, D-Pro 10 μg/kg; PD123319 1 mg/kg), measured at 5 min post-injection, six to seven rats per group",significant reduction in PP
same,portal pressure reduction,"[3]; BDL rats, PD123319 1 mg/kg i.v. bolus",not statistically significant
same,effect on portal pressure (PP),[6],failed to reduce PP
same,effect on mean arterial pressure (MAP),"[4]; single i.v. bolus (A779, D-Pro 10 μg/kg; PD123319 1 mg/kg)",no effect on MAP
same,effect on mean arterial pressure (MAP),[5]; single i.v. bolus PD123319 1 mg/kg,no effect on MAP
same,effect on mean arterial pressure (MAP),[7],no effect on MAP
same,block of Ang-(1-7)-stimulated cAMP release,MrgD,completed blocked
